Legend:
ZmHK1 [1] = target: T1, ZmHK1 (Zea mays, UniProt Q9FRY7); test: competition with [3H]tZ, plant microsomes; type: binding; set-up: full-length coding region in pB7FWG2-ZmHK1, C-terminal eGFP fusion, transiently expressed in Nicotiana benthamiana leaves, microsomes; details: pH 7.4, 0-4 °C
T1 sequence (Q9FRY7 1-974): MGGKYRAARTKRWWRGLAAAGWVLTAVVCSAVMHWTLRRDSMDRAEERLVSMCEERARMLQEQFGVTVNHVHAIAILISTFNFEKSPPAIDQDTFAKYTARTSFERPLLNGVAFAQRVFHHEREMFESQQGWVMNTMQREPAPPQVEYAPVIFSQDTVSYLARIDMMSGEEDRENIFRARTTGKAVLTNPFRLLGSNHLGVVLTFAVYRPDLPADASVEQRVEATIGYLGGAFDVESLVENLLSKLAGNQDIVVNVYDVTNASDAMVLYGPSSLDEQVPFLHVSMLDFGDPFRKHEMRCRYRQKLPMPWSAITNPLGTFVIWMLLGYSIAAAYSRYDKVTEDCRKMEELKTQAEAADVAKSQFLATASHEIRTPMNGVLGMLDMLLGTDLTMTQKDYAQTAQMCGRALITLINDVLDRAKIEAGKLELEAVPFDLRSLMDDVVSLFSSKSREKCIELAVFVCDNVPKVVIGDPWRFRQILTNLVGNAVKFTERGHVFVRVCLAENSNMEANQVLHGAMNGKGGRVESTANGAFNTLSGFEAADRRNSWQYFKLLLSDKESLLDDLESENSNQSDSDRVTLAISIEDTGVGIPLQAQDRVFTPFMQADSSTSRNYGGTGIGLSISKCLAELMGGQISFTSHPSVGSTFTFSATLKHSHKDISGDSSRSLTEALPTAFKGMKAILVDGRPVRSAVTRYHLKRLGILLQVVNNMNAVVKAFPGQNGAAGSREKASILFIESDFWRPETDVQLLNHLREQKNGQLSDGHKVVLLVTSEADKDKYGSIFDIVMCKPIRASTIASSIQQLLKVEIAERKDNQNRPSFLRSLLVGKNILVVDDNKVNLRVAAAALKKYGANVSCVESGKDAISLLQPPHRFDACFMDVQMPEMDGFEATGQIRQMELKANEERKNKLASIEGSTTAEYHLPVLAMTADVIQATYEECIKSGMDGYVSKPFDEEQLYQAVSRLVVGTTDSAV

AHK3 [2] = target: T2, AHK3 (Arabidopsis thaliana, UniProt Q9C5U1); test: competition with [3H]tZ, plant microsomes; type: binding; set-up: full-length cDNA in pB7FWG2-AHK3, C-terminal eGFP fusion, transiently expressed in Nicotiana benthamiana leaves, microsomes; details: pH 7.4, 0-4 °C
T2 sequence (Q9C5U1 1-1036): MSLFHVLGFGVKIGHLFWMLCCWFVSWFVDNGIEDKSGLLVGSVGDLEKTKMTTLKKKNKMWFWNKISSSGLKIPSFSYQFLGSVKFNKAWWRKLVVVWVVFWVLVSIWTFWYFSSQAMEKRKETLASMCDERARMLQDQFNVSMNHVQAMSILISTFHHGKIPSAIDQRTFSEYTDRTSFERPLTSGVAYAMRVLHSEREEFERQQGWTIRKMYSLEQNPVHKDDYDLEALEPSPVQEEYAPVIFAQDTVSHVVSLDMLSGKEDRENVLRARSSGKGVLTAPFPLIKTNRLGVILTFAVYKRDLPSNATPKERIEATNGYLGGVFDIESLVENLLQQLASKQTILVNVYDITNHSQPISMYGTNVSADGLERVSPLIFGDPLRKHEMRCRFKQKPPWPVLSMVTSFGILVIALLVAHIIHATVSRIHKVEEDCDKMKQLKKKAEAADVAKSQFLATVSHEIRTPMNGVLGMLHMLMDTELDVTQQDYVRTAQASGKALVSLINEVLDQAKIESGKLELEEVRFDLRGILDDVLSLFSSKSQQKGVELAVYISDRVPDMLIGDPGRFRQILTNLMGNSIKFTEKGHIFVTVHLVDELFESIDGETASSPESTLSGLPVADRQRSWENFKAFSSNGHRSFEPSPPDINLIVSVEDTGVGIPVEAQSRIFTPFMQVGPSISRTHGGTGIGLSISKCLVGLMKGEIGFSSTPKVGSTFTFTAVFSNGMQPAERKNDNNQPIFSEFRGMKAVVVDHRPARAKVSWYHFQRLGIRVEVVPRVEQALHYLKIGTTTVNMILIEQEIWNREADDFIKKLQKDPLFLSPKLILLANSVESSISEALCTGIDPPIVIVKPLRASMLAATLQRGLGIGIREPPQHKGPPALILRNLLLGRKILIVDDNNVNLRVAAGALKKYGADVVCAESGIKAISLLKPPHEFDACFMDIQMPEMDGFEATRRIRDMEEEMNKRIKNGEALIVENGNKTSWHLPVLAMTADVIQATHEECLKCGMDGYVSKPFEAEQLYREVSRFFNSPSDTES
Description: competition with [3H]tZ, plant microsomes on AHK3

AHK2 [3] = target: T3, AHK2 (Arabidopsis thaliana, UniProt Q9C5U2); test: competition with [3H]tZ, plant microsomes; type: binding; details: pH 7.4, 0-4 °C
T3 sequence (Q9C5U2 1-1176): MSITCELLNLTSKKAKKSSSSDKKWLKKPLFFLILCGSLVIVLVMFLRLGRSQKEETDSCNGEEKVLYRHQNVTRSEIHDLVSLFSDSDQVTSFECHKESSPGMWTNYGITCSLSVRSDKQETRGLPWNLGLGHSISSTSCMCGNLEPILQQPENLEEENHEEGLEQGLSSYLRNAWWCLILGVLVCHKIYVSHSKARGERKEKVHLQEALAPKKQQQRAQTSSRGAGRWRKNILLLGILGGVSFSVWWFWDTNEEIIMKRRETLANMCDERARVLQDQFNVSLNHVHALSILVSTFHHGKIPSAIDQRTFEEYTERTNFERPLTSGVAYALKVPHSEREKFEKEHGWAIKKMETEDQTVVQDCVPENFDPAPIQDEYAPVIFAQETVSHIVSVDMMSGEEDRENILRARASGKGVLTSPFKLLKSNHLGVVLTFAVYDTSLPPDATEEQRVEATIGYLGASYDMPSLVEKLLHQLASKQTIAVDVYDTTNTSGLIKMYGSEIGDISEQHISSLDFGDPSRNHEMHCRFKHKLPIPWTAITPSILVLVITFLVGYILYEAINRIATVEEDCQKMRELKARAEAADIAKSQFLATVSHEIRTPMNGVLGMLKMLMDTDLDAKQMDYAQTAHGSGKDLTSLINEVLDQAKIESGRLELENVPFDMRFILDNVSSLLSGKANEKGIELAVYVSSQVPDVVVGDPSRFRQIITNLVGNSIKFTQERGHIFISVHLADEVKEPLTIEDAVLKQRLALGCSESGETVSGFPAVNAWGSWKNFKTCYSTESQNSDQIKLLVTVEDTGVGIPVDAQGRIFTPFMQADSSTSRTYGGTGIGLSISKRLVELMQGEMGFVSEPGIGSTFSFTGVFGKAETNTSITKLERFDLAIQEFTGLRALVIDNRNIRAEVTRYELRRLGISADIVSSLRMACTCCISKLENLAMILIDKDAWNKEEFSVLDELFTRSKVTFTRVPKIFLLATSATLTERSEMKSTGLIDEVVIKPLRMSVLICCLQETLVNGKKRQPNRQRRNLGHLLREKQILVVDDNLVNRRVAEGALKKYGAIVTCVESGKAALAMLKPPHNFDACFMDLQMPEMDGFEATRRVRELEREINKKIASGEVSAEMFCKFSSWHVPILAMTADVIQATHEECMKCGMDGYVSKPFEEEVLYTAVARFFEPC
Description: competition with [3H]tZ, plant microsomes on AHK2

AHK3 [4] = target: T2, AHK3; test: biochemical
Description: [3H]tZ saturation binding to plant microsomes, Scatchard on AHK3

AHK4 = AHK4 (Arabidopsis thaliana, UniProt Q9C5U0); test: biochemical
AHK4, sequence (Q9C5U0 whole entry): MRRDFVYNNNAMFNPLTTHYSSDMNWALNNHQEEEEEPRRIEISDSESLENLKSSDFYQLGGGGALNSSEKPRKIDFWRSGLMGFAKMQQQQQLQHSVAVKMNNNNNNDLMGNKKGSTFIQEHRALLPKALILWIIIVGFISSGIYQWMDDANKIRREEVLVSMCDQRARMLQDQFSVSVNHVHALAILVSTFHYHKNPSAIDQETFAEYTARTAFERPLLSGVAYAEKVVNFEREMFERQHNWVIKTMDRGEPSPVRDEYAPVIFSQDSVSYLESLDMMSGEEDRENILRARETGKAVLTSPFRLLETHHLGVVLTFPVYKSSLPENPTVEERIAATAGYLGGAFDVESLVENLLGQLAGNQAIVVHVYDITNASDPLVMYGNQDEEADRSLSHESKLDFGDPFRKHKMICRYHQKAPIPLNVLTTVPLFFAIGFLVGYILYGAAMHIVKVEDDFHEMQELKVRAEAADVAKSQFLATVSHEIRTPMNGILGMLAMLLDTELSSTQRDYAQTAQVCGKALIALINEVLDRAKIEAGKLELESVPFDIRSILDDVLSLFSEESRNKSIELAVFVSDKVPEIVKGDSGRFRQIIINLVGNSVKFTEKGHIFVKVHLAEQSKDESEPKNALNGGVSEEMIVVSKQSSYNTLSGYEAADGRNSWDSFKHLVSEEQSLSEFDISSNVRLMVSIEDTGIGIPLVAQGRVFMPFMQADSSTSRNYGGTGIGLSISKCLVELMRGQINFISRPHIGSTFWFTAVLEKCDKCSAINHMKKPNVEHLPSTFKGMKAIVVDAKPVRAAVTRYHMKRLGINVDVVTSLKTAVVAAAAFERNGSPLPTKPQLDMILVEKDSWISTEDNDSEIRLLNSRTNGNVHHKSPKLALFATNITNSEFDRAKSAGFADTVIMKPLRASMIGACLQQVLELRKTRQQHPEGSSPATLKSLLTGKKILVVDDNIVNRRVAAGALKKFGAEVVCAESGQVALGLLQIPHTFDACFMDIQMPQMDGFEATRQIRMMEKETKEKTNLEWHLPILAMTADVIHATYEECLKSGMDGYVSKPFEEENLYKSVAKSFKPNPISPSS

AHK2 [5] = target: T3, AHK2; test: biochemical
Description: [3H]tZ saturation binding to plant microsomes, Scatchard on AHK2

ZmHK1 [6] = target: T1, ZmHK1; test: biochemical
Description: [3H]tZ saturation binding to plant microsomes, Scatchard on ZmHK1

Compound | Kd (ZmHK1 [1]) | Kd (AHK3 [2]) | Kd (AHK2 [3]) | Kd (AHK3 [4]) | Kd (AHK4) | Kd (AHK2 [5]) | Kd (ZmHK1 [6])
C[C@H](CO)CCNc1ncnc2nc[nH]c12 [DZ, dihydrozeatin] | 128 ± 47 nM | 33.1 ± 6.2 nM | 161 ± 55 nM |  |  |  | 
Nc1ncnc2nc[nH]c12 [Ade, adenine] |  | > 10000 nM |  |  |  |  | 
CC(C)=CCNc1ncnc2nc[nH]c12 [iP, isopentenyladenine] | 0.61 ± 0.27 nM | 42 ± 13.5 nM | 1.42 ± 0.52 nM |  |  |  | 
C/C(=C\CNc1ncnc2[nH]cnc12)CO [tZ, trans-zeatin] |  |  |  | 4.26 ± 1.69 nM | 2 to 8 nM | 1.93 ± 0.26 nM | 7.97 ± 1.96 nM

— PMC4378623, “Plant membrane assays with cytokinin receptors underpin the unique role of free cytokinin bases as biologically active ligands” (Journal of Experimental Botany, 2015)
